In PubChem BioAssay (NCI) one finds GI50 and TGI data, which are given here for 8 molecules.

Assay in all cases: NCI anticancer screen, dose series, 48 h
Test [1] has as its system HCT-116 colon.
The subject of test [2] is HOP-62 NSCLC.
Test [3] deals with HT29 colon.
Test [4] concerns IGROV1 ovarian.
Test [5] relates to LOX IMVI melanoma.
Test [6] deals with MALME-3M melanoma.
Test [7] relates to OVCAR-8 ovarian.
Test [8] concerns SF-268 CNS.
Test [9] has as its system SW-620 colon.
Test [10] deals with U251 CNS.

The structures appear in SMILES notation. Several values for one entry are separate records, joined by “and”; a condition that tells them apart may be missing. Equal entries are not always repeated.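 Growth conditions: 96-well plates. Treatment: test compound, 48 hours, 5 concentrations. Analysis: linear interpolation between bracketing concentrations; unreached endpoints set to highest concentration. Abbreviation: GI50, concentration required for 50% inhibition of growth. TGI: concentration producing complete growth inhibition.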

In the case of `CCC1(OC(=O)CN)C(=O)OCc2c1cc1n(c2=O)Cc2cc3ccccc3nc2-1` (stereo not given), the GI50 in [1] was 51.9 nM and 22.2 nM; in test [2], 0.0946 µM; in test [3], 111 nM and 37.4 nM; in test [4] it was 0.134 µM; in test [5], 0.0089 µM; in test [6], 0.196 µM. Moreover, the GI50 in [7] is 0.04 µM and 0.0227 µM; in test [8], 0.00689 µM; in [9] it was 0.0448 µM; in test [10], 0.0118 µM. The TGI is 0.265 µM and 0.431 µM in [1]; 0.285 µM in [2]; above 100 µM in [3]; 0.726 µM and 2.21 µM in [4]; 0.802 µM and 3.75 µM in test [6]; 14.2 µM in test [8]. In addition, the TGI is above 100 µM in test [9]; 0.333 µM and 0.636 µM in test [10].

With `COc1ccc(/C=C2\SC(=Nc3ccccc3)NC2=O)cc1`, the GI50 was 3400 nM in [1]; 7.06 µM in [2]; 4380 nM in test [3]; 13.6 µM in [4]; 5.5 µM in test [5]; 19 µM in [6]. Besides, the GI50 in test [7] is 6.62 µM; in [8], 8.18 µM; in [9] it was 3.38 µM; in [10] it was 3.98 µM. In addition, the TGI in test [1] was 12.9 µM; in test [2] it was 26.1 µM; in [3], 19.5 µM; in [4] it was above 100 µM; in test [5], 19.6 µM; in test [6] it was 99.8 µM. Moreover, the TGI in test [7] worked out at 31.7 µM; in test [8], 88.3 µM; in [9] it was 24.4 µM; in test [10], 16.3 µM.

Regarding `CCOC(=O)C12C(C(=O)OC)=C(C)N(NC(=O)Nc3ccccc3)C1(N)N(NC(=O)Nc1ccccc1)C(C)=C2C(=O)OC` (stereo not given), the TGI in [1] is 59.4 µM; in test [2], 49 µM; in test [3] it was 52.9 µM; in test [4], above 100 µM; in [5], 33.6 µM; in [6], 50.7 µM. In addition, the TGI in test [7] was above 100 µM; in test [8], above 86.7 µM; in test [9] it was above 100 µM; in [10], 35.8 µM.

Turning to `COc1ccc(/C(C#N)=C/c2cc(OC)c(OC)c(OC)c2)cc1`, the GI50 in [1] was 22900 nM; in test [2] it was 34.3 µM; in [3], 11800 nM; in test [4], 29.2 µM; in [5] it was 22.2 µM; in test [6], 7.68 µM. The GI50 in test [7] is 30.7 µM; in test [8], 39.6 µM; in test [9] it was 13.6 µM; in test [10], 26.2 µM. Also, the TGI is above 100 µM in test [1]; above 100 µM in test [2]; 85.8 µM in [3]; above 100 µM in test [4]; above 100 µM in test [5]; 56.7 µM in test [6]. For the same molecule, the TGI in [7], in test [8], in test [9] and in test [10] was above 100 µM throughout.

Take `COC(=O)C(CC(=O)Nc1ccc(Cl)c(Cl)c1)C(=O)C(=O)Nc1ccc(Cl)c(Cl)c1` (stereo not given): the TGI in test [1], in test [2], in [3], in test [4], in test [5] and in test [6] was above 100 µM throughout. Besides, the TGI in [7], in test [8], in test [9] and in test [10] was above 100 µM throughout.

Consider `C1CN(P2(N3CC3)=NP(N3CC3)(N3CC3)=NP(N3CC3)(N3CC3)=N2)CCO1` (stereo not given), for which the TGI was above 100 µM in test [1]; above 83.4 µM in test [2]; above 100 µM in test [3]; above 100 µM in [4]; above 100 µM in [5]; above 100 µM in [6]. The TGI in test [7], in [8], in test [9] and in test [10] was above 100 µM each time.

As for `CCOc1ccc(NCC2CC/C(=C\c3ccccc3OC)C2=O)cc1` (stereo not given), the TGI in test [1] was 14.5 µM; in test [2], above 57.8 µM; in test [3], 7.78 µM; in [4], 25.5 µM; in [5], 18.6 µM; in test [6] it was 27.6 µM. The TGI in test [7] is 13 µM; in [8] it was 20.8 µM; in test [9], 14.3 µM; in [10], 27.8 µM.

On to `CC(C)c1cccc(O)c(=O)c1`, for which the GI50 in [1] was 3.81 µg/mL; in [2], 5.57 µg/mL; in test [3], 1.34 µg/mL; in [4], 1.6 µg/mL; in test [5], 1.94 µg/mL; in [6], 9.77 µg/mL. Further, the GI50 was 2 µg/mL in [7], 1.55 µg/mL in [8], 3.56 µg/mL in test [9] and 1.23 µg/mL in test [10]. Also, the TGI in [1] was > 75 µg/mL and > 40.2 µM; in [2], > 75 µg/mL and > 100 µM; in test [4] it was > 75 µg/mL and > 100 µM; in test [5], > 75 µg/mL and > 100 µM; in test [6], 48.3 µg/mL and > 81.2 µM; in test [8] it was 23.6 µg/mL and > 61.6 µM. Besides, in [9], the TGI is > 75 µg/mL and > 100 µM.
